Measured values as given in publication PMC9369162, “Substrates of the Human Brain Proton-Organic Cation Antiporter and Comparison with Organic Cation Transporter 1 Activities” (International Journal of Molecular Sciences, 2022).
Read-outs that look alike come from different tables or passages of the source.

Legend:
OCT1 [1] = biological target: T1, OCT1 (Homo sapiens, UniProt O15245); experiment: Cell uptake in OCT1 overexpressing HEK293 cells over empty-vector transfected cells; format: cell-based
T1 construct: expressed in transfected cells; host or cells: HEK293
T1 sequence (O15245 1-554): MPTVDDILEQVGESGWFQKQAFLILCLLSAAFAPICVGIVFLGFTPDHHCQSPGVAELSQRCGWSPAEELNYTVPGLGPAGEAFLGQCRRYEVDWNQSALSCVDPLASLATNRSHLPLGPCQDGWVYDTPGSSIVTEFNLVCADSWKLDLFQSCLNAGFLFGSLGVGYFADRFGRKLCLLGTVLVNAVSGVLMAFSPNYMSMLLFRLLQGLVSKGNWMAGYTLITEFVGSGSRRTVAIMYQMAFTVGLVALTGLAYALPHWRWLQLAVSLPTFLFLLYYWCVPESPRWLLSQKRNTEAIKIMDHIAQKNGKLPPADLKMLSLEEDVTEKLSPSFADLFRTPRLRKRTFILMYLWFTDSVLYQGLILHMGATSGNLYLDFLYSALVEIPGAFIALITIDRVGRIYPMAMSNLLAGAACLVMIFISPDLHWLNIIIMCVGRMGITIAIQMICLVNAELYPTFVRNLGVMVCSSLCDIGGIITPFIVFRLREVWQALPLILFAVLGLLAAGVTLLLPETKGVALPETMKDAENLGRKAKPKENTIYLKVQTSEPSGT

OCT1 [2] = biological target: T1, OCT1; design: method as in PMID 34093211; conditions: cited from earlier work
[3] = design: method as in PMID 19243716; conditions: published studies; cited from earlier work
[4] = cell uptake in OCT1 overexpressing cells over uptake in mock transfected cells

Row | SMILES | OCT1 Ratio (OCT1 [1]) | OCT1 Ratio (OCT1 [1]; [4]) | further results
1 | N#CC(CCN1CCC(C(N)=O)(N2CCCCC2)CC1)(c1ccccc1)c1ccccc1 [Piritramide] | 1.18 |  | 
2 | CC(C)NCC(O)COc1cccc2ccccc12 (centres unmarked) [Propranolol] |  | 1.10 | 
3 | CN(C)CC(c1ccc(O)cc1)C1(O)CCCCC1 (centres unmarked) [Desmethylvenlafaxine] | 3.30 |  | 
4 | Cn1c(=O)[nH]c2ncn(C)c2c1=O [Paraxanthine] |  | 1.00 | 
5 | CNC1(c2ccccc2Cl)CCCCC1=O (centres unmarked) [Ketamine] | 1.10 |  | 
6 | CC(C)(C)NCC(O)c1cc(Cl)c(N)c(Cl)c1 (centres unmarked) [Clenbuterol] | 1.10 |  | 
7 | C[C@@H](O)[C@H]1C(=O)N2C(C(=O)O)=C(S[C@@H]3CN[C@H](C(=O)N(C)C)C3)[C@H](C)[C@H]12 [Meropenem] |  | 1.10 | 
8 | COc1cc(Cc2cnc(N)nc2N)cc(OC)c1OC [Trimethoprim] |  | 1.90 | 
9 | Fc1ccc([C@@H]2CCNC[C@H]2COc2ccc3c(c2)OCO3)cc1 [Paroxetin] | 1.17 |  | 
10 | CN[C@@H](C)[C@H](O)c1ccccc1 [Ephedrine] | 1.50 |  | 
11 | CNC[C@H](O)c1cccc(O)c1 [Phenylephrine] |  | 10.60 | 
12 | COc1cc(OC)c(C(=O)CCCN2CCCC2)c(OC)c1 [Buflomedil] |  | 1.00 | 
13 | CCC1(c2cccc(O)c2)CCCCN(C)C1 (centres unmarked) [Meptazinol] | 3.20 |  | 
14 | COc1ccc2c3c1O[C@H]1[C@@H](O)CC[C@H]4[C@@H](C2)N(C)CC[C@@]341 [Dihydrocodeine] | 0.80 |  | 
15 | CC(CCc1ccc(O)cc1)NCCc1ccc(O)c(O)c1 (centres unmarked) [Dobutamine] |  | 14.70 | 
16 | CNCC1CCCCC1(O)c1cccc(OC)c1 (centres unmarked) [N-Desmethyltramadol] | 2.40 |  | 
17 | CC[C@@H](C(N)=O)N1CCCC1=O [Levetiracetam] |  | 1.00 | 
18 | CNC(=C[N+](=O)[O-])NCCSCc1ccc(CN(C)C)o1 [Ranitidin] | 18.10 |  | 
19 | C[N+](C)(C)CC(=O)O [Betaine] |  | 1.00 | 
20 | CCOC(=O)c1cncn1[C@H](C)c1ccccc1 [Etomidate] | 0.94 |  | 
21 | NC(=O)c1cnccn1 [Pyrazinamide] |  | 0.80 | 
22 | N[C@@H]1C[C@H]1c1ccccc1 (racemic) [Tranylcypromine] | 1.60 |  | 
23 | C[N+](C)(C)CCO [Choline] |  | 1.50 | 
24 | COC(=O)C(c1ccccc1)C1CCCCN1 (centres unmarked) [Methylphenidate] | 1.90 |  | 
25 | CN1[C@@H]2C[C@@H](OC(=O)[C@H](CO)c3ccccc3)C[C@H]1[C@@H]1O[C@@H]12 [Scopolamin] | 1.10 |  | 

Row | SMILES | OCT1 Ratio (OCT1 [1]) | OCT1 Ratio (OCT1 [1]; [4]) | further results
26 | Cn1c(=O)c2[nH]cnc2n(C)c1=O [Theophyllin] | 1.00 |  | 
27 | NNC(=O)c1ccncc1 [Isoniazid] |  | 0.94 | 
28 | CN1CCC[C@@H]1Cc1c[nH]c2ccc(CCS(=O)(=O)c3ccccc3)cc12 [Eletriptan] |  | 1.20 | 
29 | CC(C)NCC(O)COc1cccc2[nH]ccc12 (centres unmarked) [Pindolol] |  | 1.20 | 
30 | CN(C)CCc1c[nH]c2ccc(C[C@H]3COC(=O)N3)cc12 [Zolmitriptan] |  | 10.00 | 
31 | CC(C)(C)NCC(O)c1ccc(O)c(CO)n1 (centres unmarked) [Pirbuterol] | 80.90 |  | 
32 | CCOC(=O)C1(c2ccccc2)CCC=CC1N(C)C (centres unmarked) [Tilidine] | 1.30 |  | 
33 | CCN(CC)CCNC(=O)c1cc(Cl)c(N)cc1OC [Metoclopramide] | 1.80 |  | 
34 | CN(C)CCC=C1c2ccccc2COc2ccccc21 [Doxepin] |  | 1.30 | 
35 | CN(C)CCC=C1c2ccccc2CCc2ccccc21 [Amitriptyline] |  | 1.20 | OCT1 substrate status (OCT1 [2]): not OCT1 substrates
36 | COc1ccccc1N1CCN(CCCNc2cc(=O)n(C)c(=O)n2C)CC1 [Urapidil] |  | 1.10 | 
37 | Cc1ncc(C[n+]2csc(CCO)c2C)c(N)n1 [Thiamine] |  | 11.60 | 
38 | CCOC(=O)[C@]1(c2ccccc2)CCC=C[C@H]1NC [Nortilidine] | 1.62 |  | 
39 | Cc1nccn1CC1CCc2c(c3ccccc3n2C)C1=O (centres unmarked) [Ondansetron] |  | 1.00 | 
40 | c1cnc2cc3c(cc2n1)[C@@H]1CNC[C@H]3C1 [varenicline] |  |  | variation of blood concentrations [3]: more than 100 fold
41 | CC(C)NCC(O)COc1ccc(COCCOC(C)C)cc1 (centres unmarked) [Bisoprolol] |  | 1.00 | 
42 | COc1ccc2c3c1O[C@H]1C(=O)CC[C@H]4[C@@H](C2)N(C)CC[C@]314 [Hydrocodone] | 1.20 |  | 
43 | COc1ccc2c3c1O[C@H]1C(=O)CC[C@@]4(O)[C@@H](C2)N(C)CC[C@]314 [Oxycodone] | 0.90 |  | 
44 | CCCC(=O)Nc1ccc(OCC(O)CNC(C)C)c(C(C)=O)c1 (centres unmarked) [Acebutolol] |  | 5.20 | 
45 | CNCC[C@H](Oc1cccc2ccccc12)c1cccs1 [Duloxetine] | 1.20 |  | 
46 | Nc1nc2c(ncn2COCCO)c(=O)[nH]1 [Acyclovir] | 2.00 |  | 
47 | CC12CC3CC(C)(C1)CC(N)(C3)C2 [Memantine] |  | 1.10 | 
48 | CN[C@@H]1CCc2[nH]c3ccc(C(N)=O)cc3c2C1 [Frovatriptan] |  | 33.10 | 
49 | COc1cccc2c1C(=O)c1c(O)c3c(c(O)c1C2=O)C[C@@](O)(C(C)=O)C[C@@H]3O[C@H]1C[C@H](N)[C@H](O)[C@H](C)O1 [Daunorubicin] | 1.10 |  | 
